# Measurements published in article PMC12498288 (Frontiers in Immunology, 2025).
# Several values for one entry are separate records, joined by “and”; a condition that tells them apart may be missing. Equal values may be shown once. Read-outs that look alike come from different tables or passages of the source.
# Experiments:
# [1] = system: HCoV OC43; assay: Virus yield reduction assay, HCoV-OC43 on MRC-5 cells (RT-qPCR); assay type: cell-based; conditions: Betacoronavirus 1, OC43, MRC5, MOI 0.1, 24 h
# Description: The virus yield reduction assay of HCoV-229E and HCoV-OC43 was performed on MRC-5 cells seeded at 1.5x10^5 cells per well in 24-well plates 24 h prior infection with HCoV-229E (MOI 0.001) or HCoV-OC43 (MOI 0.1) for 1 h. The inoculum was completely removed, and the cells were treated with different concentrations of zapnometinib (50 µM to 0.006 µM) and a solvent control in Iscove’s Modified Dulbecco’s Medium (IMDM) containing 2% FBS, 1% Penicillin/Streptomycin at 34°C, 5% CO2 for 24 h (HCoV-OC43) or 48 h (HCoV-229E). Supernatants were harvested and the viral titer was determined by a real-time one-step multiplex RT-qPCR using specific primers targeting the N and NS2 genes for HCoV-229E and HCoV-OC43 respectively ( Supplementary Table 1 ) EC50 values were calculated based on the measured viral titers normalized to the solvent control (1% DMSO) and using the “log(inhibitor) vs. response - Variable slope (four parameters)” analysis in GraphPad Prism v9.
# [2] = system: HMGB1, GLDH, SELP; assay: Candidate safety biomarker analysis in hamster serum (IA-LC-MS/MS); assay type: in vivo, Syrian hamsters
# Description: Serum samples from hamsters collected at pre- infection (0 dpi) and post-infection (4 dpi) and treatment time points were analyzed to evaluate the levels of various candidate safety biomarkers. Serum proteins were enzymatically fragmented through proteolysis, and protein-specific peptides were targeted for quantification of the corresponding protein biomarker levels by immunoaffinity liquid chromatography tandem mass spectrometry (IA-LC-MS/MS) performed as described previously ([48], [49]). For further details, see Supplementary Methods .
# The candidate protein biomarkers were quantified via specific peptides analyzed by immunoaffinity liquid chromatography tandem mass spectrometry (IA-LC-MS/MS) assays. For proteolysis, 10 μL of each serum sample was mixed with 50 μL of digestion buffer (100 mM triethanolamine and 0.5% (w/v) n-octylglucoside (NOG)), and proteolysis reagents were added to achieve a final sample volume of 100 µL. The proteolysis procedure included denaturation at 99 °C for 5 minutes, reduction in 5 mM tris(2-carboxyethyl)-phosphine at 22 °C for 5 minutes, alkylation in 10 mM iodoacetamide at 22 °C for 20 minutes and an overnight enzymatic fragmentation at 37 °C with a trypsin-to-protein ratio of 1:20 (assuming a concentration of 60 mg/mL protein in serum). […]
# The following peptide transitions were monitored in the mass spectrometer : […] […]
# [3] = system: Vero cells; conditions: Vero 24 h 5% FBS
# [4] = system: Vero E6 cells; conditions: Vero E6 24 h 5% FBS
compound,measurement,setting,value
O=C(O)c1ccc(F)c(F)c1Nc1ccc(I)cc1Cl [zapnometinib],EC50,[1],16.1 µM and 6.6 µg/mL
same,"levels of safety biomarkers HMGB1, GLDH, SELP in serum","[2]; 0 dpi vs 4 dpi, 100 mg/kg then 75 mg/kg from +4 or +24 h p.i.",no prominent changes
same,toxicity of the treatment regimen,[2]; 100 mg/kg followed by 75 mg/kg beginning at +4 or +24 h p.i.,not toxic
same,%LDH release compared to maximum LDH release,[3]; 0.39 µM,0.35%
same,%LDH release compared to maximum LDH release,[3]; 0.78 µM,0.41%
same,%LDH release compared to maximum LDH release,[3]; 1.56 µM,0.41%
same,%LDH release compared to maximum LDH release,[3]; 3.13 µM,-0.37%
same,%LDH release compared to maximum LDH release,[3]; 6.25 µM,0.02%
same,%LDH release compared to maximum LDH release,[3]; 12.50 µM,0.31%
same,%LDH release compared to maximum LDH release,[3]; 25.00 µM,0.12%
same,%LDH release compared to maximum LDH release,[3]; 50.00 µM,0.49%
same,%LDH release compared to maximum LDH release,[3]; 75.00 µM,0.83%
same,%LDH release compared to maximum LDH release,[3]; 100.00 µM,1.44%
same,%LDH release compared to maximum LDH release,[4]; 0.39 µM,0.22%
same,%LDH release compared to maximum LDH release,[4]; 0.78 µM,0.17%
same,%LDH release compared to maximum LDH release,[4]; 1.56 µM,0.15%
same,%LDH release compared to maximum LDH release,[4]; 3.13 µM,0.39%
same,%LDH release compared to maximum LDH release,[4]; 6.25 µM,0.13%
same,%LDH release compared to maximum LDH release,[4]; 12.50 µM,0.09%
same,%LDH release compared to maximum LDH release,[4]; 25.00 µM,-0.04%
same,%LDH release compared to maximum LDH release,[4]; 50.00 µM,0.02%
same,%LDH release compared to maximum LDH release,[4]; 75.00 µM,0.24%
same,%LDH release compared to maximum LDH release,[4]; 100.00 µM,0.26%
